Experimental data from patent US8975290B2, “Methods and compositions for enhancing an immune response, blocking monocyte migration, amplifying vaccine immunity and inhibiting tumor growth and metastasis” (Colorado State University Research Foundation, priority 2013, dated 2015).
Where two headings read alike, the source gives them in different places.

Columns and labels:
[1] = cited from earlier work
ovalbumin = assay: Anti-ovalbumin antibody titers after ovalbumin vaccination (humoral immunity); format: in vivo; settings: mice, boost at day 10, vs vaccine only
Description: Briefly, two groups of mice (n=5) were vaccinated with 5 μg of ovalbumin. […] The second group of mice received no additional treatment following vaccination. Second vaccinations were repeated 10 days following the initial vaccinations.
To assess the effects of Ondansetron on humoral immunity, mice were treated with Ondansetron at the time of vaccination. Briefly, two groups of mice (n=4 per group) were vaccinated subcutaneously with 1 μg of ovalbumin in a liposomal adjuvant. The first group of mice received 3 mg/kg Ondansetron via i.p. injection at the time of vaccination, and at 12, 24, and 36 hours following vaccination. The second group of mice received no additional treatment following vaccination. A third group of mice received neither the vaccine nor the Ondansetron. Second vaccinations were repeated for the first two groups of mice 10 days following the initial vaccinations, and second Ondansetron treatments were repeated for the groups as described for the first cycle of vaccination.

monocytes = assay: Boyden chamber assay on blood samples of Losartan-treated dogs; format: in vivo
inflammatory monocytes = assay: Footpad inflammation-induced monocyte migration assay (flow cytometry of draining popliteal lymph nodes); format: in vivo; settings: mice, 24 h after vaccination, vs vaccine only
Description: Footpad inflammation-induced monocyte migration assays were performed as previously described (Mitchell et al. (2012), J. Immunology 189: 5612-5621) to determine whether Ondansetron inhibits monocyte migration in vivo in mice. Briefly, two groups of mice (n=4 per group) were injected with 50 μl of liposomal vaccine adjuvant in one footpad. The first group of mice was treated by injection of 3 mg/kg Ondansetron administered IP at the time of footpad injection and the Ondansetron injections were repeated 12, 24, and 36 hours following footpad injection. […] The third group received neither the vaccine nor the Ondansetron. Inflammatory monocyte migration to the draining popliteal lymph nodes was assessed in all three groups of mice via flow cytometry (as described in Mitchell et al. (2012), J. Immunology, supra) 24 hours following vaccination.
Briefly, two groups of mice (n=4 per group) were vaccinated in the right rear footpad. […] Inflammatory monocyte migration to the draining popliteal lymph nodes was assessed in all three groups of mice via flow cytometry (as described in Mitchell et al. (2012), J. Immunology, supra) 24 hours following vaccination.

dog monocytes = assay: Boyden chamber assay, dog monocyte migration in response to a CCL2 (MCP-1) gradient; format: cell-based
Description: (§1) The Boyden chamber assay is based on a chamber of two medium-filled compartments separated by a microporous membrane. In general, cells are placed in the upper compartment and are allowed to migrate through the pores of the membrane into the lower compartment, in which chemotactic agents are present. After an appropriate incubation time, the membrane between the two compartments is fixed and stained, and the number of cells that have migrated to the lower side of the membrane is determined. Experiments using this assay were performed as described in Mitchell et al. (2012) Int. Immunopharmacol. 15: 357-363 to assess the migration of monocytes.

spleen cells = assay: IFNγ secretion of spleen cells in response to ovalbumin restimulation (cellular immunity); format: in vivo; settings: vaccinated mice treated concurrently with Losartan; restimulated in vitro 72 hours with 5 μg/ml ovalbumin; vs vaccine only; p<0.05 (FIG. 11)
Description: Two groups of mice were immunized as noted in Example 7 above. To determine whether cellular immunity was enhanced in the Losartan-treated mice, mice from both the first and second groups were euthanized, and their spleen cells were assayed to determine IFNγ secretion levels in response to ovalbumin restimulation. Splenectomies and restimulation assays for cellular immune responses were performed as previously described (Mitchell et al. (2012), J. Immunology, supra). Spleen cells were restimulated in vitro for 72 hours with 5 μg/ml ovalbumin protein.

[2] = test system: human monocyte cell line THP-1; assay: Boyden chamber assay, human monocyte migration in response to a CCL2 (MCP-1) gradient; format: cell-based; settings: dose dependent, FIG. 1 (Losartan), FIG. 3 (Ondansetron)
Description: as §1, with “monocytes. […] A Boyden chamber assay was performed (as described in Mitchell et al. (2012) Int. Immunopharmacol, supra) to assess the migration of human monocytes (i.e., the human monocyte cell line THP-1) in response to a CCL2 (MCP-1) gradient and to assess the ability of Ondansetron to inhibit monocyte migration in vitro.” for “monocytes.”

A20-HA tumors = assay: A20 mouse B-cell lymphoma model, tumor vaccine responses; format: in vivo, mice
Description: The A20 mouse B-cell lymphoma model was used to assess the effects of Ondansetron on tumor vaccine responses. Briefly, two groups of mice (n=5 per group) with established d3 A20-HA tumors (i.e., tumors expressing HA) were vaccinated weekly for 3 weeks with HA antigen (1 μg per mouse in liposome adjuvant), either without or with concurrently administered ondansetron (3 mg/kg i.p., administered 4 times at 12 h intervals). A third group of mice received neither the HA nor the Ondansetron. Tumor measurements were made using calipers every 2-3 days. Mice were sacrificed when their tumors reached a diameter of 1.5 cm.
Labeled anti-CD11b antibodies were used to quantitate the numbers of infiltrating CD11b+ monocyte/macrophages in the tumor tissues.

[3] = Table 2, Comparison of ARB Pharmacokinetics

In the case of CCOc1nc2cccc(C(=O)O)c2n1Cc1ccc(-c2ccccc2-c2nnn[nH]2)cc1 [Candesartan], the Bioavailability [1, 3] is given as 15% and the “Biological Half-Life” value [1, 3] is given as 9 hours.
In the case of CCCCC1=NC2(CCCC2)C(=O)N1Cc1ccc(-c2ccccc2-c2nnn[nH]2)cc1 [Irbesartan], the “Biological Half-Life” value [1, 3] is given as 11-15 hours.
In the case of CCCCc1nc(Cl)c(CO)n1Cc1ccc(-c2ccccc2-c2nn[nH]n2)cc1 [Losartan], the anti-ovalbumin antibody titers (ovalbumin; 5 μg ovalbumin, 30 mg/kg Losartan at vaccination and 12, 24, 36 h after, p<0.05 (FIG. 9)) is reported as “significantly higher anti-ovalbumin antibody titers”, the “monocyte migration in blood samples after treatment” value (monocytes; 3 dogs with cancer, 2 mg/kg/day for two weeks, pooled data, FIG. 8) is reported as “Monocyte migration was inhibited” and the “monocyte migration in blood samples after treatment” value (monocytes; healthy dogs, 2 mg/kg/day for 48 hours, vs before treatment, FIG. 7) is reported as “significantly inhibited”. The “migration of inflammatory monocytes to the draining lymph nodes” value (inflammatory monocytes; 30 mg/kg Losartan at injection and 12 h after, p<0.05 (FIG. 6)) was “significantly reduced”, the “canine monocyte migration in vitro” value (dog monocytes; CCL2 (MCP-1) gradient, dose dependent, FIG. 2) was “potently blocked canine monocyte migration in vitro in a dose dependent manner” and the “canine monocyte migration in the presence of MCP-1” value (dog monocytes; concentrations of 1 μg/ml and 10 μg/ml) was “blocked canine monocyte migration even in the presence of MCP-1”. The “IFNγ production by spleen cells” value (spleen cells) was “produced significantly more IFNγ” and the “human monocyte migration (THP-1) in vitro” value [2] was “potently blocked human monocyte migration (THP-1) in vitro in a dose dependent manner”.
For CCCc1nc(C(C)(C)O)c(C(=O)O)n1Cc1ccc(-c2ccccc2-c2nnn[nH]2)cc1 [Olmesartan], the Bioavailability [1, 3] is given as 29% and the “Biological Half-Life” value [1, 3] is given as 14-16 hours.
In the case of Cc1nccn1CC1CCc2c(c3ccccc3n2C)C1=O (centres unmarked) [Ondansetron], the anti-ovalbumin antibody titers (ovalbumin; 1 μg ovalbumin s.c. in liposomal adjuvant, 3 mg/kg Ondansetron i.p. at vaccination and 12, 24, 36 h after, p<0.05 (FIG. 10)) is given as “significantly higher anti-ovalbumin antibody titers”, the Biological Half-Life ([1]; text b221) is given as “about 3.9 hours” and the “infiltrating CD11b+ monocyte/macrophages in tumor tissues” value (A20-HA tumors; immunohistochemistry, vaccine with Ondansetron vs vaccine alone, FIG. 13) is given as “markedly fewer monocyte/macrophages”. The tumor growth rates (A20-HA tumors; mice with A20-HA tumors, HA vaccine weekly for 3 weeks with ondansetron 3 mg/kg i.p. 4 times at 12 h intervals, vs vaccine only, FIG. 12) was “significantly reduced”, the “migration of inflammatory monocytes to the draining lymph nodes” value (inflammatory monocytes; 3 mg/kg Ondansetron IP at footpad injection and 12, 24, 36 h after, p<0.001 (FIG. 4, 5)) was “significantly reduced” and the “human monocyte migration (THP-1) in vitro” value [2] was “potently blocked THP-1 monocyte migration in vitro in a dose dependent manner”.
For CCCc1nc2c(C)cc(-c3nc4ccccc4n3C)cc2n1Cc1ccc(-c2ccccc2C(=O)O)cc1 [Telmisartan], the Bioavailability [1, 3] is given as 42-58%.
